Results taken from PubChem BioAssay AID1645866 (Buhrlage Lab, Dana-Farber Cancer Institute and Novartis …, 2021).
The source made the active and inactive calls.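 Rule for the calls: active = in confirmatory dose-response testing, peak deubiquitinase inhibition of 30% or more; inactive = the rest.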

biological target: Ubiquitin carboxyl-terminal hydrolase 28 (Homo sapiens) (UniProt Q96RU2); test: Ubiquitin-specific peptidase 28 DUB inhibitors, biochemical concentration-dependence assay, validation of primary screening hits (AID 1645866); conditions: purified USP28, ubiquitin-rhodamine fluorescence, 30 min
Sequence (Q96RU2 whole entry, looked up): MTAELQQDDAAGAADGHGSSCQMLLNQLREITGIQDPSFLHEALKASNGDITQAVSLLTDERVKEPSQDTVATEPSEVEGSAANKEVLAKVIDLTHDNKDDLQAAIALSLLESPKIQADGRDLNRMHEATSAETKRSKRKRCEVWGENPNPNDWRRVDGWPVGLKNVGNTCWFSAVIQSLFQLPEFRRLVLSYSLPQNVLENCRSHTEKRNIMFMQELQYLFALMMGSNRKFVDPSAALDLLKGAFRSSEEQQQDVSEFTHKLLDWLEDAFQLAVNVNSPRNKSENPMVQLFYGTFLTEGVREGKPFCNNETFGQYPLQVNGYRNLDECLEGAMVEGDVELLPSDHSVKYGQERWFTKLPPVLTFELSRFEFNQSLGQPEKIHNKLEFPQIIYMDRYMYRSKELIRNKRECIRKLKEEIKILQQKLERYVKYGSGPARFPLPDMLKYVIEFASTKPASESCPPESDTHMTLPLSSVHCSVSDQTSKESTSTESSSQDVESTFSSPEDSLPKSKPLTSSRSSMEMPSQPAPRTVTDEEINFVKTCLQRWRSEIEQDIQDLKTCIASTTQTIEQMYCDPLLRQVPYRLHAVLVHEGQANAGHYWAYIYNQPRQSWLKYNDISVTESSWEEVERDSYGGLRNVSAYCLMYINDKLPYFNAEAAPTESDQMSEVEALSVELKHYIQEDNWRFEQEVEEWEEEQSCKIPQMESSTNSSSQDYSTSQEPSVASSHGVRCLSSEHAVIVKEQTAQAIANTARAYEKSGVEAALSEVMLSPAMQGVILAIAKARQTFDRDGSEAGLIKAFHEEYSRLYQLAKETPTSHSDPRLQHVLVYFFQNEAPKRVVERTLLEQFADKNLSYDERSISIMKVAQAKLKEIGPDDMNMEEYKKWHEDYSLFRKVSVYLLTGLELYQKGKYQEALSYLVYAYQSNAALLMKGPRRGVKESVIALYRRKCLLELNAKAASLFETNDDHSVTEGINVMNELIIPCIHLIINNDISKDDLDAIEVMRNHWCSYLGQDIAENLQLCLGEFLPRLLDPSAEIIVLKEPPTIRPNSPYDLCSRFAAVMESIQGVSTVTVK

SMILES | IC50
CC(=O)c1ccc(NC(=O)C[n+]2cc(-c3ccc(Cl)cc3)n3c2CCC3)cc1 | 31.9 µM
Cc1ccc2cc(CCNC(=O)c3cccc(Br)c3)c(=O)[nH]c2c1 | 37.2 µM
O=C(CNc1nc(Nc2ccccc2F)nc(Nc2ccccc2F)n1)Nc1ccccc1 | 27 µM
CCN(c1ccc(NC(=O)CSc2nnc(-c3ccccc3)n2-c2ccc(OC)c(OC)c2)cc1)C(C)C | 6.1 µM
O=C(Nc1ccccc1Sc1ncc(-c2ccc(Cl)cc2)cn1)c1ccco1 | 23.6 µM
Cc1nnc(NC(=O)C2CCN(c3ccc(S(N)(=O)=O)cc3[N+](=O)[O-])CC2)o1 | 11.1 µM
CN1CCN(c2ccc3nc(-c4ccccc4)c(-c4ccccc4)nc3c2)CC1 | > 50 µM (inactive)
Cc1ccc(Cl)cc1NC(=O)c1cc(-c2ccccn2)n[nH]1 | 13.4 µM
COc1cc2c(cc1OC)-c1cc(NCc3cc(OC)c(OC)c(OC)c3)nc(=O)n1CC2 | > 50 µM (inactive)
Cc1cn[nH]c1C1COCCN1C(=O)c1ccc2ncccc2c1 (stereo not given) | > 50 µM (inactive)
CN(CCc1ccccc1)c1nccc(N2CCN(C(=O)c3csc(-c4cccnc4)n3)CC2)n1 | > 50 µM (inactive)
N#Cc1cc2c(nc1SCC(=O)NCc1ccccc1)CCCC2 | > 50 µM (inactive)
NS(=O)(=O)c1cccc(NS(=O)(=O)c2ccc(/C=C/C(=O)OCC(=O)c3ccc(Br)cc3)cc2)c1 | > 50 µM (inactive)
COC(=O)c1ccc(Cn2cnc3ccc(Br)cc3c2=O)o1 | 2.07 µM
CC(C)C1Cc2c(sc3nc(SCC(=O)Nc4cccc5ccccc45)nc(N)c23)CO1 (stereo not given) | 38.5 µM
CN(C)CCc1cc2c(c3c1ccc1ccccc13)OCO2 | 4.59 µM
O=C(CN1C(=O)c2ccccc2Sc2ccc(C(=O)N3CCCC3)cc21)Nc1ccccc1Cl | 29.6 µM
CN(C(=O)CSc1nnc(-c2cc3ccccc3n2C)o1)c1ccccc1 | > 50 µM (inactive)
CC1Cc2ccccc2N1C(=O)Cn1c(=O)cc(O)c2ccccc21 (stereo not given) | 18.8 µM
CN[C@H]1CC2(CCN(C(=O)CCCn3cccn3)CC2)OC[C@]1(C)O | > 50 µM (inactive)
CCn1cnc2ccc(C(=O)NC3CC3)cc2c1=O | 20.2 µM
O=C(NCc1ccc2c(c1)OCO2)c1ccc(C2SCC(=O)N2Cc2ccco2)cc1 (stereo not given) | > 50 µM (inactive)
CC(C)N1C[C@@H]2C[C@H](NS(=O)(=O)c3cccc(C#N)c3)CN2Cc2ccccc21 | > 50 µM (inactive)
Cn1c(=O)sc2cc(NC(=O)c3ccc(Br)cc3)ccc21 | 2.76 µM
COC(=O)c1sccc1NC(=O)COc1ccsc1C(=O)OC | 25.6 µM

SMILES | IC50
COc1ccc(OC)c(NC(=O)c2ccc(-n3nnnc3SC)cc2)c1 | 22.6 µM
CC(C)(C)C(=O)C1C2C(=O)N(c3ccc4c(c3)OCO4)C(=O)C2C2c3ccccc3C=CN12 (stereo not given) | > 50 µM (inactive)
Cc1nc2cc(NC(=O)C3CN(C(=O)c4cnccn4)C3)ccc2s1 | 9.44 µM
O=C(COc1nc2ccccc2nc1N1CCOCC1)Nc1cccc(S(=O)(=O)N2CCCCC2)c1 | > 50 µM (inactive)
O=C(Cn1cncc(C(=O)NC2CCCC2)c1=O)Nc1cccc(F)c1 | 21.6 µM
C=C[C@]1(C)C=C2C(=O)[C@]3(O)OC(=O)[C@@]4(CCCC(C)(C)[C@H]34)[C@@]2(O)CC1 | 27.6 µM
O=C(COc1ccc2c(c1)CCC2)Nc1ccc2c(c1)CCC2 | 37.7 µM
COc1ccc(CCNC(=O)c2cc(C3CC3)nc3c2cnn3C(C)C)cc1 | 3.47 µM
Nc1ccccc1SCc1noc(-c2cccs2)n1 | 6.61 µM
COc1ccc(-c2cc3nc(C)cc(Nc4ccc(F)cc4)n3n2)cc1OC | > 50 µM (inactive)
O=C(CSc1nncc2ccccc12)Nc1ccc2c(c1)OCO2 | 37.5 µM
COc1cccc(N2CCN(c3ccc4nnc(CCC(=O)N5CCc6ccccc6C5)n4n3)CC2)c1 | 22.8 µM
Cc1ccc(CNC(=O)CCCn2c(=O)c3sccc3n(CC(=O)OCc3ccccc3)c2=O)cc1 | 2.15 µM
Cc1sc(NC(=O)CN2CCc3ccccc3C2)nc1-c1ccc2c(c1)CCN2C(=O)C1CCCCC1 | > 50 µM (inactive)
COc1ccc(-n2ccc(=O)c(-c3nc(-c4ccccc4F)no3)n2)cc1OC | > 50 µM (inactive)
COc1ccc(-c2nc(SCC(=O)Nc3ccc(C(C)=O)cc3)n[nH]2)cc1 | 15.5 µM
COc1ccc(NC(=O)CS(=O)(=O)c2[nH]c(-c3ccc(C)cc3)nc2-c2ccccc2)cc1Cl | 31 µM
CC(=O)Nc1ccc(S(=O)(=O)NCc2ccc(C(=O)NCc3ccc(C)cc3)cc2)cc1 | 19.2 µM
O=C(Nc1ccc2c(c1)OCCO2)Nc1ccc2nc3n(c(=O)c2c1)CCCC3 | 15.1 µM
O=C(CSc1nnc(Cn2cnc3ccccc32)o1)Nc1ccc([N+](=O)[O-])cc1 | 20.3 µM
CCOC(=O)c1cnc(C(F)(F)F)nc1Sc1n[nH]c(-c2cccs2)n1 | > 50 µM (inactive)
Cc1ccc(NC(=O)c2ccc(N3CCOCC3)nn2)cc1F | 45.6 µM
CNC(=O)C1CN(C(=O)c2ccc(OC)cc2)CC12CCCC2 (stereo not given) | > 50 µM (inactive)
COc1ccc(NC(=O)C2Oc3ccc(C)cc3NC2=O)cc1Cl (stereo not given) | 19.5 µM
COc1ccccc1CNC(=O)c1ccc(CSc2nc3ccncc3n2Cc2ccccc2)cc1 | 30.9 µM
